Source: patent US6558900B2, “Regulation of apoptosis and in vitro model for studies thereof” (Emory University, priority 1996, dated 2003)

Test system: CPP32
Test: Activation of endogenous CPP32 in HeLa cell S-100 (Western blot; cleavage of 35S-labeled PARP and SREBP-2)
Format: biochemical, human
Details: 1 mM nucleotide
Experimental: FIGS. 1A-1D illustrate dATP-dependent activation of CPP32 and DNA fragmentation in vitro. Aliquots (10 μl) of HeLa cell S-100 (50 μg) were incubated alone (lane 1), in the presence of 1 mM ATP (lane 2), or in the presence of 1 mM dATP (lane 3) at 30° C. for 1 hr in a final volume of 20 μl of buffer A. FIG. 1A, samples were subjected to SDS-PAGE and transferred to a nitrocellulose filter, probed with a monoclonal anti-CPP32 antibody, and the antigen/antibody complex was visualized by the ECL method. The filter was exposed to Kodak X-OMAT AR X-ray film for 1 min. In FIG. 1B, an aliquot of 10 μl of in vitro translated, ^35S-labeled PARP was added to each reaction. After 5 min, the samples were subjected to SDS-PAGE and transferred to a nitrocellulose filter. The filter was exposed to film for 2 hr at room temperature. In FIG. 1C, a 5 μl aliquot of in vitro translated, ^35S-labeled SREBP-2 was added to each reaction. After incubation at 30° C. for 30 min, the samples were subjected to SDS-PAGE, the gel was dried and exposed to film for 2 hr at room temperature. In FIG. 1D, a 50 μlaliquot of HeLa cell S-100 (250 μg) was incubated with 6 μl Hamster Liver nuclei in the absence (lane 1), or presence of 1 mM ATP (lane 2) or dATP (lane 3) for 2 hr at 37° C. in a final volume of 60 μl of buffer A. DNA was isolated as described in the Examples and size-separated by agarose gel electrophoresis (2% agarose), and the DNA was visualized by ethidium bromide staining.
Activation of CPP32 and DNA fragmentation are two well characterized biochemical markers of apoptosis and its initiation. With the goal of producing an in vitro system that duplicates apoptosis, we prepared 100,000×g cytosolic supernatant (S-100) from suspension cultures of HeLa cells. The activation of CPP32 is the result of cleavage of its 32 kDa precursor into the 20 kDa NH2-terminal fragment and 11 kDa COOH-terminal fragment [Nicholson et al. (1995) supra], thus the activation of CPP32 in the HeLa cell S-100 was monitored by Western blot analysis using a monoclonal antibody against the 20 kDa fragment of CPP32 (FIG. 1A). The enzymatic activity of CPP32 was assayed by measuring the cleavage of two ^35S-labeled substrates, PARP (FIG. 1B) and SREBP-2 (FIG. 1C). DNA fragmentation was assayed by incubating the HeLa cell S-100 with nuclei isolated from hamster liver followed by genomic DNA extraction and analysis by agarose gel electrophoresis. […] The sizes of the cleaved products of PARP and SREBP-2 were the same as observed in cells undergoing apoptosis [Kaufmann et al. (1993) Cancer Res. 53, 3976-3985; Wang et al. (1996) supra]. […]

## Nc1ncnc2c1ncn2[C@H]1C[C@H](O)[C@@H](COP(=O)(O)OP(=O)(O)OP(=O)(O)O)O1 [dATP, deoxyadenosine-5-triphosphate]
  cleavage of 35S-labeled PARP by activated extract: readily cleaved PARP into 85 kDa and 24 kDa fragments
  cleavage of 35S-labeled SREBP-2 by activated extract: SREBP-2 into 55 kDa and 70 kDa fragments
30° C., 1 hr, Western blot
  activation of CPP32 in HeLa cell S-100: most of the CPP32 in the HeLa cell S-100 was activated
